Patent publication EP0944628B1, “HETERO-BIARYL-PYRIDOQUINAZOLINONE DERIVATIVES AS ANTI-CANCER AGENTS” (American Cyanamid Company, priority 1996, dated 1998)
Converted amounts (≈) assume the structure as drawn.

Columns and labels:
[1] = test system: Colon 26 Advanced, Metastatic Tumor; test: Murine Colon 26 advanced, metastatic tumor, increase in mean life span; type: in vivo, CD2F1 mice; conditions: days 5,9,13
Protocol: (§1) CD2F1 mice are injected i.p. with 5 x 10^5 tumor cells on Day 0 of the test. Drugs are administered i.p. on Days 5, 9, and 13 after the tumor implantation. Positive drug response is indicated by a more than 25% increase in the mean life span (% ILS), relative to placebo treated controls. Drugs are considered to be toxic when the mean life span of the drug treated animals is more than 15% shorter than placebo treated controls.

[2] = test system: A2780 DDP cells; test: Two cell line test procedure, in vitro cytotoxicity (sulforhodamine B), A2780 DDP; type: cell-based; conditions: Homo sapiens; A2780 DDP cells (cisplatin-resistant), 48 hours exposure
Protocol: (§2) A2780 S and A2780 DDP cells [Biochemical and Molecular Properties of Cisplatin-resistant A2780 Cells Grown in Folinic Acid; Y. Lu, J. Hnan, and K. Scanlon, J. Biol. Chem., 263, 4891-4894, 1988.] are grown in RPMI 1640 medium containing 5% fetal calf serum, 50 µg/ml streptomycin, 50 units/ml penicillin, 50 µg/ml gentamycin, 0.03% L-glutamine, 1 nM estradiol, 1 nM testosterone, 5 µg/ml insulin, 5 µg/ml transferrin, and 5 ng/ml selenous acid, at 37°C, in a humidified atmosphere, containing 5% CO2. Experiments are done in the same media.
(§3) Cells are plated at the concentration of 5 x 10^4/ml on Day 0 of the experiment. On Day one cells are fixed with trichloroacetic acid and 5 ten-fold dilutions of tested compounds are added, in duplicates, to the remaining cells. On Day 3 (48 hours exposure to drugs) all cells are fixed with trichloroacetic acid, stained with 0.4% sulforhodamine B, and absorbency is read at 520 nm. The IC50 (concentration causing 50% inhibition) are determined for each drug.

[3] = test system: P388 Leukemia; test: Murine P388 leukemia, increase in mean life span; type: in vivo, CD2F1 mice; conditions: days 1,5,9
Protocol: as §1, with “with 1” for “with 5”, “x 10^6” for “x 10^5”, “Days 1,” for “Days”, “5,” for “5, 9,”, “and 9” for “and 13”

[4] = test system: A2780 S cells; test: Two cell line test procedure, in vitro cytotoxicity (sulforhodamine B), A2780 S; type: cell-based; conditions: Homo sapiens, A2780S, 48 hours exposure
Protocol: as §2, §3

[5] = test system: P388; conditions: literature report; cited from earlier work

Row | SMILES | IC50 [2] | % ILS ([1]; COLON 26, dose 100 mg/kg i.p.) | % ILS ([1]; COLON 26, dose 200 mg/kg i.p.) | % ILS ([1]; COLON 26, dose 300 mg/kg i.p.) | % ILS ([3]; P388, dose 50 mg/kg i.p.) | % ILS ([3]; P388, dose 100 mg/kg i.p.) | % ILS ([3]; P388, dose 200 mg/kg i.p.) | IC50 [4] | also measured
1 | COc1cccc2c1C(=O)c1c(O)c3c(c(O)c1C2=O)C[C@@](O)(C(=O)CO)C[C@@H]3O[C@H]1C[C@H](N)[C@H](O)[C@H](C)O1 [Adriamycin, reference compound] | – | – | – | – | – | – | – | – | % ILS ([1]; COLON 26, dose 4 mg/kg i.p.): +70%
2 | CN(C)CCNC(=O)c1cccn2c(=O)c3cc(-c4cccnc4)ccc3nc12 [Example 06, N-[2-(Dimethylamino)ethyl]-11-oxo-2-(3-pyridinyl)-11H-Pyrido-[2,1-b]quinazoline-6-carboxamide] | 5 µg/mL (≈ 12.9 µM) | +9% | +15% | +21% | +16% | +22% | +47% | 0.9 µg/mL (≈ 2.32 µM) | –
3 | CN(C)CCNC(=O)c1cccn2c(=O)c3cc(-c4ccncc4)ccc3nc12 [Example 07, N-[2-(Dimethylamino)ethyl]-11-oxo-2-(4-pyridinyl)-11H-pyrido-[2,1-b]quinazoline-6-carboxamide] | 5.6 µg/mL (≈ 14.5 µM) | -15% | -52% | -58% | +20% | +29% | +49% | 0.7 µg/mL (≈ 1.81 µM) | –
4 | O=C(NCCN1CCCC1)c1cccn2c(=O)c3cc(-c4ccncc4)ccc3nc12 [Example 08, 11-Oxo-2-(4-pyridinyl)-N-[2-(1-pyrrolidinyl)ethyl]-11H-pyrido-[2,1-b]quinazoline-6-carboxamide] | 3.7 µg/mL (≈ 8.95 µM) | – | – | – | – | – | – | 0.8 µg/mL (≈ 1.93 µM) | –
5 | CN(C)CCNC(=O)c1cccn2c(=O)c3cc(-c4cnc5ccccc5c4)ccc3nc12 [Example 10, N-[2-(Dimethylamino)ethyl]-11-oxo-2-(3-quinolinyl)-11H-pyrido[2,1-b]quinazoline-6-carboxamide] | 5.3 µg/mL (≈ 12.1 µM) | – | – | – | – | – | – | 4.5 µg/mL (≈ 10.3 µM) | –
6 | CN(C)CCNC(=O)c1cccn2c(=O)c3ccc(-c4cccnc4)cc3nc12 [Example 15, N-[2-(Dimethylamino)ethyl]-11-oxo-3-(3-pyridinyl)-11H-pyrido-[2,1-b]quinazoline-6-carboxamide] | 0.7 µg/mL (≈ 1.81 µM) | +15% | +64% | -3% | +8% | +18% | +37% | 0.6 µg/mL (≈ 1.55 µM) | –
7 | CN(C)CCNC(=O)c1cccn2c(=O)c3ccc(-c4ccncc4)cc3nc12 [Example 16, N-[2-(Dimethylamino)ethyl]-11-oxo-3-(4-pyridinyl)-11H-pyrido-[2,1-b]quinazoline-6-carboxamide] | 8.6 µg/mL (≈ 22.2 µM) | – | – | – | – | – | – | 7 µg/mL (≈ 18.1 µM) | –
8 | CN(C)CCNC(=O)c1cccn2c(=O)c3ccccc3nc12 [I, N-[2-(dimethylamino)ethyl]-11-oxo-11H-pyrido[2,1-b]quinalzoline-6-carboxamide] | – | – | – | – | – | – | – | – | activity in a P388 mouse model [5]: inactive
9 | CC[C@]1(O)C[C@H]2CN(CCc3c([nH]c4ccccc34)[C@@](C(=O)OC)(c3cc4c(cc3OC)N(C=O)[C@H]3[C@@](O)(C(=O)OC)[C@H](OC(C)=O)[C@]5(CC)C=CCN6CC[C@]43[C@@H]65)C2)C1 [Vincristine, reference compound] | – | – | – | – | – | – | – | – | % ILS ([3]; P388, dose 0.8 mg/kg i.p.): +114%
